This is an account of results in article PMC9395670 (Frontiers in Chemistry, 2022).

Series [1] concerns the target T1, horse serum BuChE (eqBuChE) (Equus caballus, UniProt P81908).
T1 construct: horse serum BuChE (eqBuChE, Sigma-Aldrich); purchased Sigma-Aldrich; host or cells: horse serum
The series is described as follows: biochemical. Particulars: Ellman's method, 25°C, mean ± SEM of three experiments. (In Ellman's method for cholinesterases, released thiocholine reacts with DTNB.)
Experimental: (§1) This method is based on the reaction of acetylthiocholine with 5,5′´-dithio-bis-(2-nitrobenzoic) acid (DTNB) to yield the colored product.
(§2) AChE from E. electricus, and horse serum BuChE (eqBuChE, Sigma-Aldrich) 5,5-Dithiobis-(2-nitrobenzoic acid) (DTNB), and acetylthiocholine iodide (ATC) were purchased from Sigma Aldrich. […] In this procedure, five different concentrations of each compound were used at 25°C. […] For the in-vitro BuChE assay similar method has been used.

For series [2], the target named is T2, AChE from E. electricus (Electrophorus electricus, UniProt O42275).
T2 construct: purchased Sigma Aldrich
T2 sequence (O42275 24-633): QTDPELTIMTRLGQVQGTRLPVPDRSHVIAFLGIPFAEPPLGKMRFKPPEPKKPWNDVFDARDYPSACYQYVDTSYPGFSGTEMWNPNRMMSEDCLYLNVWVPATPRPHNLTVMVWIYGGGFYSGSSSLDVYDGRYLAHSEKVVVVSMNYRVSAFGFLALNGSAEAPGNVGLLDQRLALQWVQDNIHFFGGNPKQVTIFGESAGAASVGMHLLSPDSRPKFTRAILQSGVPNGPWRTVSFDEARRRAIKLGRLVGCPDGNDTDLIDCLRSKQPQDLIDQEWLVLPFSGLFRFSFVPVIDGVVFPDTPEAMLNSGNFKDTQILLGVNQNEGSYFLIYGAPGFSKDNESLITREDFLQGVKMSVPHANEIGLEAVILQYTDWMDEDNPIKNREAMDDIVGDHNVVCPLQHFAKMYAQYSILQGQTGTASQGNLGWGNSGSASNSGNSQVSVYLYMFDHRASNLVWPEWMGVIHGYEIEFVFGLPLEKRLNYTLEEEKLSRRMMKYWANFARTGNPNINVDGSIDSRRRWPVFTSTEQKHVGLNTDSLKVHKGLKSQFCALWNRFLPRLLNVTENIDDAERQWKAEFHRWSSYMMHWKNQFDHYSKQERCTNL
The series is described as follows: biochemical.
Experimental: as §1, §2

Series [3] has as its target T3, Aβ1–42 and human recombinant AChE (Homo sapiens, UniProt P22303).
T3 construct: Aβ1–42 (Sigma A9810); purchased Sigma C1682 (AChE); A9810 (Aβ1–42)
The series is described as follows: Inhibition of AChE-induced Aβ1–42 aggregation (thioflavin T assay). It is filed as biochemical. The settings on record: read-out: Inhibition of Aβ aggregation (%) AChE-induced.
Experimental: (§3) For this purpose, we used the thioflavin T (ThT) assay.
(§4) Aβ1–42 (Sigma A9810) 50 μM was dissolved in ammonium hydroxide (1% v/v) for pre-fibrillation and incubated for 72 h at 37°C. […] Next, 50 μl of thioflavin T (ThT, 200 μM) containing 50 mM glycine-NaOH buffer (pH 8.5) was added. […] The aggregation inhibition of the tested compounds was calculated on AChE or self-induced Aβ-aggregation according to the equation (1−IFi/IFc) × 100, where IFi and IFc are the fluorescence intensities in the presence of inhibitors and in the absence of inhibitors, respectively.

The nature of series [4]: Cell viability assay (MTT) in PC12 cells. It is filed as cell-based. The settings on record: rat. The protocol: Safety is an important factor for CNS agents. In order to evaluate the cytotoxic effect of selected compounds 5a, 5f, 5h, 5i, and 5l, the in-vitro cell viability assay was investigated on the PC12 cell line using the MTT (3-(4,5-dimethylthiazol-2-yl)-2,5-diphenyltetrazolium bromide) assay. The PC12 cells were incubated with varying concentrations (0.01–100 μM) of the test compounds for 24 h. […] The results are expressed as the percentage of viable cells.
In order to evaluate cell viability of 5a, 5f, 5h, 5i, and 5l, the 3-(4,5-dimethylthiazol-2-yl)-2,5-diphenyl tetrazolium bromide (MTT) assay was performed using PC12 cell line. Cells were seeded in 96-well plates at a density of 5,000 cells/well for 24 h, and then cells were treated with tested compounds and glutamate (5 mM) and incubated at 37°C for 24 h. After that, the medium was removed and 20 μl of the MTT reagent (5 mg/ml) was added and incubated at 37 °C for 4 h. Then, the medium was replaced with 150 μl DMSO to solve formazan crystals. The absorbance was recorded by microplate reader apparatus (Biotek, Winooski, VT, United States) at 570 nm. The assay was performed in three independent experiments and triplicate.

The target in series [5] is T4, Aβ1–42 (Homo sapiens, UniProt P05067).
T4 construct: Aβ1–42 (Sigma A9810); purchased Sigma A9810
T4 sequence (P05067 672-713 limits assumed): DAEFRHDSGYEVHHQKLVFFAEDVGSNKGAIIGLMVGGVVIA
The series is described as follows: Inhibition of self-induced Aβ1–42 aggregation (thioflavin T assay). In kind it is biochemical. Particulars: for inhibition at 10 µM: read-out: Inhibition of Aβ aggregation (%) Self-induced; for Effectiveness relative to donepezil in inhibition of self-induced Aβ aggregation: 10 μM.
Experimental: as §3, §4

For series [6], the target named is AChE (Electrophorus electricus, UniProt O42275). Put plainly: Kinetics study of AChE inhibition (Lineweaver-Burk plots). Particulars: inhibitor at 0.32, 0.64, 1.27 μM, substrate ATCh. It is filed as biochemical. The procedure:
The inhibition model of acetylcholinesterase can be categorized into irreversible-type inhibition and reversible-type inhibition. […]. The type of inhibition can be concluded with a graphical analysis of the Lineweaver-Burk reciprocal plots ([Baharloo et al., 2015]).
[…]. The experiment was assayed in triplicate.

The mark [7] stands for this setting: compound at 10 μM, ThT assay, mean ± SEM of three experiments.
Where [8] appears, read: Ellman's method, 25°C, mean ± SEM of three experiments, read-out: IC50 (μM) AChE.

Broadly, the IC50 is the concentration needed to halve the response being measured. Usually inhibition stands for the percentage by which the read-out fell short of the control. What is called viability is the share of living cells, or the viability signal relative to a control. Higher therefore signals better survival.

Entries after “also recorded” stand apart in the source; their conditions may differ. Where two headings read alike, the source gives them in different places.

T1 sequence (P81908 whole entry): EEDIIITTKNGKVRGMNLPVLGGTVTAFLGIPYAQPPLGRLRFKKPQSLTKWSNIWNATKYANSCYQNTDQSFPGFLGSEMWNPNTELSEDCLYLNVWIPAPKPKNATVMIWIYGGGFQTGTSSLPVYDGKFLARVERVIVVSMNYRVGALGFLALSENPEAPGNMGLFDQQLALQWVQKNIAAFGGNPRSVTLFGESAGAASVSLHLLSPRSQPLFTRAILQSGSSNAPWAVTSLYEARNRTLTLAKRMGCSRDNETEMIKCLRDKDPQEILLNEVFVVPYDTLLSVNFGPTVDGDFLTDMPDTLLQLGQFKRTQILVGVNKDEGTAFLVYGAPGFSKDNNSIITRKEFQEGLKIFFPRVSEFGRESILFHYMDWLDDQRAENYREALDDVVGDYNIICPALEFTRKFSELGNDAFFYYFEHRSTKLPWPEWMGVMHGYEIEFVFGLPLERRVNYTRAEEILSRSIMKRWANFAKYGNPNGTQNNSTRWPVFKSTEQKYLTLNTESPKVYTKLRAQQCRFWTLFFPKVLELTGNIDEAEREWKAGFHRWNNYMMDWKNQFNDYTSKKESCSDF
T3 sequence (P22303 32-614): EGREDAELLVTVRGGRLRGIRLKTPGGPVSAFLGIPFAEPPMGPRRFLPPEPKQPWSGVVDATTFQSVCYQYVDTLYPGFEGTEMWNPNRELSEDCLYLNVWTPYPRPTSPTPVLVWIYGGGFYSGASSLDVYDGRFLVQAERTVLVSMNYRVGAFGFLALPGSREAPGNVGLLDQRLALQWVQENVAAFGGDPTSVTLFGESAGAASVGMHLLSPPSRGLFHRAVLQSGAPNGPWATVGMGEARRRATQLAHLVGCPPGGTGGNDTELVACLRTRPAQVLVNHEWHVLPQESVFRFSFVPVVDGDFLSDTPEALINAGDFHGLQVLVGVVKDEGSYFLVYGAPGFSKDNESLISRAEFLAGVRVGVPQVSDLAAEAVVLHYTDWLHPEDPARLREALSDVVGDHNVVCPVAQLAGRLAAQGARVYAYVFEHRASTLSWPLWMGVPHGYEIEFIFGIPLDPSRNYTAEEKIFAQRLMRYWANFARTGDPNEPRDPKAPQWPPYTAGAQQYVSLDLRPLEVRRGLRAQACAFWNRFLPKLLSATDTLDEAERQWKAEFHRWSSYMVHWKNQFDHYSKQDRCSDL
Chain of AChE (O42275 24-633): as the sequence (O42275 24-633) above

As for `Nc1c(-c2cc[n+](Cc3ccccc3)cc2)oc2ccccc12` [5a, 4-(3-Aminobenzofuran-2-yl)-1-benzylpyridin-1-ium chloride], the IC50 turned out to be 0.82 ± 0.07 µM in series [1] and 0.81 ± 0.02 µM in series [2]. The inhibition at 100 µM in series [3] worked out at 22.4 ± 1.6%. In series [4], the viability at 24 h was 85.9 ± 1.5%. The inhibition at 10 µM in series [5] (setting [7]) was found to be 17.6 ± 3.8%.
`Cc1ccccc1C[n+]1ccc(-c2oc3ccccc3c2N)cc1` [5b, 4-(3-Aminobenzofuran-2-yl)-1-(2-methylbenzyl) pyridin-1-ium chloride]: the values for the half-inhibitory concentration (IC50) in series [1] and in series [2] (setting [8]) were 17.4 ± 2.45 µM and 3.29 ± 0.01 µM, respectively.
With `Cc1cccc(C[n+]2ccc(-c3oc4ccccc4c3N)cc2)c1` [5c, 4-(3-Aminobenzofuran-2-yl)-1-(3-methylbenzyl) pyridin-1-ium chloride], the half-maximal inhibitory concentration (IC50) in series [1] turned out to be 12.9 ± 3.56 µM; in series [2] (setting [8]), 3.32 ± 0.04 µM.
The matching figures for `Cc1ccc(C[n+]2ccc(-c3oc4ccccc4c3N)cc2)cc1` [5d, 4-(3-Aminobenzofuran-2-yl)-1-(4-methylbenzyl) pyridin-1-ium chloride]: 25.3 ± 1.91 µM and 29.3 ± 0.82 µM.
The matching figures for `COc1cccc(C[n+]2ccc(-c3oc4ccccc4c3N)cc2)c1` [5e, 4-(3-Aminobenzofuran-2-yl)-1-(3-methoxybenzyl) pyridin-1-ium chloride]: over 100 µM and 81.1 ± 1.61 µM.
Turning to `Nc1c(-c2cc[n+](Cc3ccccc3F)cc2)oc2ccccc12.[Cl-]` [5f, 4-(3-Aminobenzofuran-2-yl)-1-(2-fluorobenzyl) pyridin-1-ium chloride], the “Type of inhibition on AChE” value in series [6] is reported as “mixed-type inhibition; also recorded: mixed-type inhibitory pattern”. For the same molecule, the IC50 in series [1] stood at 0.55 ± 0.07 µM; in series [2] it was 0.64 ± 0.04 µM. The inhibition at 100 µM in series [3] stood at 30.1 ± 1.9%. Besides, in series [4], the viability at 24 h is 86.4 ± 2.6%. Also, the “Effectiveness relative to donepezil in inhibition of self-induced Aβ aggregation” value in series [5] (ThT assay) is recorded as “about 2 fold”. Also, the inhibition at 10 µM in series [5] (setting [7]) was determined as 29.8 ± 1.8%.
With `Nc1c(-c2cc[n+](Cc3cccc(F)c3)cc2)oc2ccccc12` [5g, 4-(3-Aminobenzofuran-2-yl)-1-(3-fluorobenzyl) pyridin-1-ium chloride], the IC50 was 2.89 ± 0.42 µM in series [1] and 1.68 ± 0.02 µM in series [2] (setting [8]).
As to `Nc1c(-c2cc[n+](Cc3ccc(F)cc3)cc2)oc2ccccc12.[Cl-]` [5h, 4-(3-Aminobenzofuran-2-yl)-1-(4-fluorobenzyl) pyridin-1-ium chloride], the IC50 in series [1] stood at 5.05 ± 0.73 µM; in series [2], 0.88 ± 0.04 µM. Moreover, the inhibition at 100 µM in series [3] is 35.6 ± 1.5%. Moreover, in series [4], the viability at 24 h stood at 88.2 ± 2.4%. Besides, the “Effectiveness relative to donepezil in inhibition of self-induced Aβ aggregation” value in series [5] (ThT assay) is recorded as “about 2 fold”. In addition, in series [5] (setting [7]), the inhibition at 10 µM came to 38.8 ± 2.8%.
Regarding `Nc1c(-c2cc[n+](Cc3ccccc3Cl)cc2)oc2ccccc12` [5i, 4-(3-Aminobenzofuran-2-yl)-1-(2-chlorobenzyl) pyridin-1-ium chloride], the half-maximal inhibitory concentration (IC50) in series [1] came out at 0.99 ± 0.05 µM; in series [2], 0.7 ± 0.01 µM. Besides, the inhibition at 100 µM in series [3] turned out to be 26.5 ± 3.8%. For the same molecule, the viability at 24 h in series [4] came out at 90.2 ± 4.1%. Further, the inhibition at 10 µM in series [5] (setting [7]) worked out at 24.8 ± 1.5%.
Take `Nc1c(-c2cc[n+](Cc3cccc(Cl)c3)cc2)oc2ccccc12` [5j, 4-(3-Aminobenzofuran-2-yl)-1-(3-chlorobenzyl) pyridin-1-ium chloride]: the IC50 in series [1] was determined as 18.8 ± 1.11 µM; in series [2] (setting [8]), 2.99 ± 0.03 µM.
Take `Nc1c(-c2cc[n+](Cc3ccc(Cl)cc3)cc2)oc2ccccc12` [5k, 4-(3-Aminobenzofuran-2-yl)-1-(4-chlorobenzyl) pyridin-1-ium chloride]: the concentration for half-maximal inhibition (IC50) in series [1] was 31.2 ± 2.56 µM; in series [2] (setting [8]), 16.6 ± 0.52 µM.
On to `Nc1c(-c2cc[n+](Cc3ccccc3Br)cc2)oc2ccccc12` [5l, 4-(3-Aminobenzofuran-2-yl)-1-(2-bromobenzyl) pyridin-1-ium chloride], for which the IC50 in series [1] turned out to be 10.5 ± 0.19 µM; in series [2], 1.34 ± 0.01 µM. Moreover, in series [3], the inhibition at 100 µM worked out at 22.4 ± 2.3%. Also, in series [4], the viability at 24 h turned out to be 87.1 ± 2.9%. The inhibition at 10 µM in series [5] (setting [7]) was found to be 25.7 ± 2.7%.
`Nc1c(-c2cc[n+](Cc3cccc(Br)c3)cc2)oc2ccccc12` [5m, 4-(3-Aminobenzofuran-2-yl)-1-(3-bromobenzyl) pyridin-1-ium chloride]: the IC50 in series [1] is 13.9 ± 1.2 µM; in series [2] (setting [8]), 4.47 ± 0.02 µM.
The matching figures for `Nc1c(-c2cc[n+](Cc3ccc(Br)cc3)cc2)oc2ccccc12` [5n, 4-(3-Aminobenzofuran-2-yl)-1-(4-bromobenzyl) pyridin-1-ium chloride]: 22.6 ± 3.33 µM and 15.8 ± 0.91 µM.
The matching figures for `Nc1c(-c2cc[n+](Cc3ccccc3[N+](=O)[O-])cc2)oc2ccccc12` [5o, 4-(3-Aminobenzofuran-2-yl)-1-(2-nitrobenzyl) pyridin-1-ium chloride]: 28.63 ± 0.13 µM and 7.84 ± 0.05 µM.
Turning to `Nc1c(-c2cc[n+](Cc3ccc([N+](=O)[O-])cc3)cc2)oc2ccccc12` [5p, 4-(3-Aminobenzofuran-2-yl)-1-(4-nitrobenzyl) pyridin-1-ium chloride], the IC50 was determined as 28.3 ± 0.48 µM in series [1] and 20.6 ± 0.8 µM in series [2] (setting [8]).
Take `COc1cc2c(cc1OC)C(=O)C(CC1CCN(Cc3ccccc3)CC1)C2` (stereo not drawn) [Donepezil, reference compound]: the inhibition at 10 µM in series [5] amounted to 14.9 ± 2.5%.
